Test results reported in article PMC10285260, “Processive kinetics in the three-step lanosterol 14α-demethylation reaction catalyzed by human cytochrome P450 51A1” (The Journal of Biological Chemistry, 2023).
Where two headings read alike, the source gives them in different places.

Experiments:
human P450 51A1 [1] = assay: Kinetic modeling (KinTek Explorer) of the single-turnover time course
Text: The initial koff rate constants used in fitting were the koff rates measured in the stopped-flow trap experiments (Fig. 9). All three oxidation reactions are irreversible, and thus k-2, k-4, and k-6 were set to zero.
Data were imported into KinTek Explorer software (v. 11.01, KinTek, https://kintekcorp.com/software) ([63], [64]) as txt files and processed using an Apple computer (operating system 11.6.2).

human P450 51A1 [2] = biological target: T1, human P450 51A1 (Homo sapiens, UniProt Q16850); assay: Single-turnover rapid-quench kinetics of [3-3H]-dihydrolanosterol oxidation (radio-HPLC); type: biochemical; set-up: made in house; host or cells: Escherichia coli
T1 sequence (Q16850 1-509): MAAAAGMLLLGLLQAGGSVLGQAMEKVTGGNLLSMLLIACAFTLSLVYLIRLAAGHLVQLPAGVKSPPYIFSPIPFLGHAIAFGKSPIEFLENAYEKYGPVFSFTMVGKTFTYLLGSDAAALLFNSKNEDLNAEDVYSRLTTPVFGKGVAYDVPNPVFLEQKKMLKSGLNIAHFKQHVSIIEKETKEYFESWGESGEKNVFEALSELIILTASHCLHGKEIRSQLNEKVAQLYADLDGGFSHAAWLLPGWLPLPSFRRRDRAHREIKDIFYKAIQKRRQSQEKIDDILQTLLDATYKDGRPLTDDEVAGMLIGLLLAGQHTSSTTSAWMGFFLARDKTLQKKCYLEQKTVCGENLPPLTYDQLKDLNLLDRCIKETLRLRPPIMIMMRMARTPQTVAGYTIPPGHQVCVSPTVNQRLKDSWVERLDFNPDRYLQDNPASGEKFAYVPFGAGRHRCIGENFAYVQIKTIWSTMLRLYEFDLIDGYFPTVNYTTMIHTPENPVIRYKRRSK
Protocol: All products were separated and quantified by radio-HPLC (Fig. S24).
Samples (held at 4 °C) were injected (45 μl) onto a Nova-Pak 3.9 mm × 150 mm (4 μm) octadecylsilane (C18) HPLC column (held at 23 °C). The products were separated at a flow rate of 1.0 ml min^−1 using an isocratic mobile phase composed of CH3CN (only) as was done for the LC-UV assays (above). The eluate from the column was mixed (1:2, v-v) with FlowLogic U scintillation cocktail, and radioactivity (^3H) was detected on a β-RAM Model 5 system (IN/US, LabLogic) (Fig. S24). Product formation was assessed as the relative contribution of each peak (in CPM) to the summed peak area of substrate and product(s).
The single-turnover experiments were performed using a KinTek rapid quench-flow apparatus (KinTek). This machine functions by forcing equal volumes (∼19 μl) of two separate solutions into a central mixing chamber, where the components are allowed to incubate for a predetermined period of time before an excess volume of quench solution (∼160 μl) stops the reaction and expels the mixture from the apparatus. […] After the predetermined incubation period, the reaction (37 °C) was quenched with HCl (1 M), and the mixture (∼200 μl) was collected into vials. The products of five identical reactions (time points) were combined and were extracted into CH2Cl2 (5 ml). An aliquot (4 ml) of the lower (organic) layer was removed into a fresh vial, and the extraction was repeated to maximize sample recovery. The pooled organic fraction (∼8 ml) was brought to dryness under a stream of N2 gas, and the residue was redissolved in 60 μl of CH3OH and transferred to LC vials for analysis.

human P450 51A1 [3] = biological target: T1, human P450 51A1; assay: Stopped-flow koff measurements of P450 51A1-sterol complexes with ketoconazole trap; type: binding; set-up: made in house; host or cells: Escherichia coli; conditions: 23 °C, 10 μM ketoconazole trap, 1 μM P450 51A1
Protocol: All assays were done at 23 °C in an OLIS-RSM 1000 stopped-flow spectrophotometer, collecting data every 1 ms over a range of 332 to 565 nm with slit widths of 1.24 mm (8 nm bandpass) and gratings with 400 lines/mm and 500 nm blaze. One syringe contained 20 μM ketoconazole dissolved in 100 mM potassium phosphate buffer (pH 7.4). In a preliminary experiment in which this was mixed with an equal volume of 2 μM P450 51A1 (same buffer), the observed rate of binding (ΔA430) was 25 s^−1.
P450 51A1 (2 μM) was premixed with an equivalent concentration of each of the sterols (in HPCD). Each of these solutions was placed in a drive syringe and rapidly mixed with 20 μM ketoconazole (yielding final concentrations of 1 μM P450 51A1 and 10 μM ketoconazole). The rate of the ΔA430-A390 change was used as the koff rate, that is, the rate at which the sterol left the P450 and allowed it to bind to the trap ligand ketoconazole.

human P450 51A1 [4] = biological target: T1, human P450 51A1; assay: Spectral (difference spectroscopy) Kd estimates of P450 51A1-sterol complexes; type: binding; set-up: made in house; host or cells: Escherichia coli
Protocol: Kd values were estimated by difference spectroscopy. P450 51A1 (1.0 μM) was in each of two glass cuvettes (in 100 mM potassium phosphate buffer, pH 7.4) and a baseline was recorded (OLIS-Amino DW2a). Aliquots of a solution of each sterol–HPCD complex were added to the sample cuvette and an equivalent amount of HPCD was added to the reference cuvette, and spectra were recorded. The time between the collection of individual spectra was ∼3 min. The maximum absorbance difference (usually ΔA390-A418) was plotted versus the nominal concentration of added sterol, and the data were fit to hyperbolae in GraphPad Prism software (GraphPad, https://www.graphpad.com), using a quadratic equation to correct the ligand concentration for the enzyme-bound concentration (used as Y=B+(A/2)∗(1/E)∗((Kd+E+X)-sqrt((Kd + E+X)^∧2-(4∗E∗X)) in Prism software). The linear regression fits include the internal error estimates (SE).

human P450 51A1 [5] = biological target: T1, human P450 51A1; assay: Steady-state LC-UV assay of sterol oxidation to dihydro FF-MAS by reconstituted P450 51A1; conditions: oxidation to dihydro FF-MAS (epi-dihydro FF-MAS from epi substrate), 37 °C
Protocol: Steady-state incubations (500 μl) were generally done at 37 °C with 0.025 μM P450 51A1, 0.10 μM NADPH-P450 reductase, 100 μM L-α-dilauroyl-sn-glycero-3-phosphocholine, 50 mM potassium phosphate buffer (pH 7.4), 10% (v/v) glycerol, and an indicated concentration of each sterol (in 45% (w/v) HPCD). […] The sterols (stored at 4 °C) were prepared as described above and were heated to 37 °C and sonicated prior to use. Sterol working stocks were diluted in HPCD to ensure a constant concentration of cyclodextrin in each reaction. […] Accordingly, all reactions were done with this concentration of glycerol.
Reactions were preincubated (5 min, 37 °C) prior to initiation with an NADPH-regenerating system (0.5 mM NADP^+, 10 mM glucose 6-phosphate, and 2 μg ml^−1 glucose 6-phosphate dehydrogenase) ([60]) and were stopped after 5 min with the addition of CH2Cl2 (5 ml). (The NADPH-generating system, in addition to lower cost than NADPH, drives the reaction to avoid inhibition of the reductase by accumulated NADP^+). For the 14α-aldehyde, the times of preincubation and reaction were reduced (to 2 min and 1 min, respectively). The quenched mixture was centrifuged (2000g, 5 min), and 4 ml of the bottom (organic) layer was transferred to vials and brought to dryness under a stream of N2 gas. The dried residue was resuspended in CH3OH (100 μl) and was analyzed by UPLC using a 2.1 mm × 100 mm (1.7 μm) octadecylsilane (C18) column (held at 25 °C) and a Waters Acquity UPLC system. Samples (4 °C) were injected (10 μl) at a flow rate of 0.20 ml min^−1 using an isocratic mobile phase of CH3CN (only). The product (FF-MAS) was detected using a Waters Acquity photodiode array detector set at 250 nm (Fig. 4B). Data were processed using the MassLynx software (http://www.waters.com/waters/en_US/MassLynx-Mass-Spectrometry-Software-/nav.htm?cid=513164&locale=en_US), and the amount of product formed was calculated by comparison to a twelve-point dihydro FF-MAS standard curve. Determination of kcat and Km for each reaction was carried out by fitting the data to a Michaelis–Menten hyperbola, which was done using GraphPad Prism.
Incubations were run in triplicate, and the mean values (±SD) were calculated and plotted. The linear regression fits include the Prism error estimates for internal fitting (SE).

human P450 51A1 [6] = biological target: T1, human P450 51A1; assay: Stopped-flow rate of ketoconazole binding to P450 51A1; set-up: made in house; host or cells: Escherichia coli; conditions: 10 μM ketoconazole, 1 μM P450 51A1 final
[7] = substrate: CC(C)CCCC(C)[C@H]1CC[C@@]2(C=O)C3=C(CC[C@]12C)[C@@]1(C)CC[C@H](O)C(C)(C)C1CC3; assay: purified protein, by the assay type; conditions: other: oxidation to dihydro FF-MAS (epi-dihydro FF-MAS from epi substrate), 37 °C, pH 7.4
Protocol: (§1) Steady-state incubations (500 μl) were generally done at 37 °C with 0.025 μM P450 51A1, 0.10 μM NADPH-P450 reductase, 100 μM L-α-dilauroyl-sn-glycero-3-phosphocholine, 50 mM potassium phosphate buffer (pH 7.4), 10% (v/v) glycerol, and an indicated concentration of each sterol (in 45% (w/v) HPCD). Due to the high turnover rate of the 14α-aldehyde, the P450 and NADPH-P450 reductase concentrations were reduced (to 0.01 μM and 0.04 μM, respectively), and the reaction volume was increased (to 1 ml) to maximize sensitivity. The sterols (stored at 4 °C) were prepared as described above and were heated to 37 °C and sonicated prior to use. Sterol working stocks were diluted in HPCD to ensure a constant concentration of cyclodextrin in each reaction. […] Accordingly, all reactions were done with this concentration of glycerol.
(§2) Reactions were preincubated (5 min, 37 °C) prior to initiation with an NADPH-regenerating system (0.5 mM NADP^+, 10 mM glucose 6-phosphate, and 2 μg ml^−1 glucose 6-phosphate dehydrogenase) ([60]) and were stopped after 5 min with the addition of CH2Cl2 (5 ml). […] For the 14α-aldehyde, the times of preincubation and reaction were reduced (to 2 min and 1 min, respectively). The quenched mixture was centrifuged (2000g, 5 min), and 4 ml of the bottom (organic) layer was transferred to vials and brought to dryness under a stream of N2 gas. The dried residue was resuspended in CH3OH (100 μl) and was analyzed by UPLC using a 2.1 mm × 100 mm (1.7 μm) octadecylsilane (C18) column (held at 25 °C) and a Waters Acquity UPLC system. Samples (4 °C) were injected (10 μl) at a flow rate of 0.20 ml min^−1 using an isocratic mobile phase of CH3CN (only). The product (FF-MAS) was detected using a Waters Acquity photodiode array detector set at 250 nm (Fig. 4B). Data were processed using the MassLynx software (http://www.waters.com/waters/en_US/MassLynx-Mass-Spectrometry-Software-/nav.htm?cid=513164&locale=en_US), and the amount of product formed was calculated by comparison to a twelve-point dihydro FF-MAS standard curve. Determination of kcat and Km for each reaction was carried out by fitting the data to a Michaelis–Menten hyperbola, which was done using GraphPad Prism.

[8] = substrate: CC(C)CCCC(C)[C@H]1CC[C@@]2(C)C3=C(CC[C@]12C)[C@@]1(C)CC[C@@H](O)C(C)(C)C1CC3; assay: purified protein, by the assay type; conditions: other: oxidation to dihydro FF-MAS (epi-dihydro FF-MAS from epi substrate), 37 °C, pH 7.4
Protocol: as §1, §2

[9] = substrate: CC(C)CCCC(C)[C@H]1CC[C@@]2(C)C3=C(CC[C@]12C)[C@@]1(C)CC[C@H](O)C(C)(C)C1CC3; assay: purified protein, by the assay type; conditions: pH 7.4
[10] = substrate: CC(C)CCCC(C)[C@H]1CC[C@@]2(CO)C3=C(CC[C@]12C)[C@@]1(C)CC[C@H](O)C(C)(C)C1CC3; assay: purified protein, by the assay type; conditions: other: oxidation to dihydro FF-MAS (epi-dihydro FF-MAS from epi substrate), 37 °C, pH 7.4
Protocol: as §1, §2

**Q.** For `CC(C)CCC[C@@H](C)[C@H]1CC=C2C3=C(CC[C@@]21C)[C@@]1(C)CC[C@H](O)C(C)(C)[C@@H]1CC3` [dihydro FF-MAS, 24,25-dihydro FF-MAS], which “k^+ of sterol binding to P450 51A1 (kon) used for fitting” value (human P450 51A1 [1]; all kon set at this value) is on record?
**A.** 2e+06 M⁻¹ s⁻¹

**Q.** What about the “k^- of sterol binding to P450 51A1 (koff) used for fitting” value (human P450 51A1 [1]; optimized model) of the same molecule?
**A.** 2.0 s⁻¹

**Q.** What about the “concentration in single-turnover reaction” value (“concentration” below) (human P450 51A1 [2]; time 0.05 s, start 7 µM dihydrolanosterol) of the same molecule?
**A.** 0 µM

**Q.** And the “concentration” value (human P450 51A1 [2]; time 0.1 s)?
**A.** 0 µM

**Q.** And the “concentration” value (human P450 51A1 [2]; time 0.15 s)?
**A.** 0.2821 µM

**Q.** And the “concentration” value (human P450 51A1 [2]; time 0.2 s)?
**A.** 0.4249 µM

**Q.** And the “concentration” value (human P450 51A1 [2]; time 0.3 s)?
**A.** 0.7518 µM

**Q.** And the “concentration” value (human P450 51A1 [2]; time 0.4 s)?
**A.** 1.2019 µM

**Q.** And the “concentration” value (human P450 51A1 [2]; time 0.6 s)?
**A.** 2.506 µM

**Q.** And the “concentration” value (human P450 51A1 [2]; time 0.8 s)?
**A.** 3.0184 µM

**Q.** And the “concentration” value (human P450 51A1 [2]; time 1 s)?
**A.** 4.0537 µM

**Q.** And the “concentration” value (human P450 51A1 [2]; time 1.2 s)?
**A.** 4.494 µM

**Q.** What about the “concentration” value (human P450 51A1 [2]; time 1.6 s) of the same molecule?
**A.** 4.8181 µM

**Q.** What about the “concentration” value (human P450 51A1 [2]; time 2 s) of the same molecule?
**A.** 5.2031 µM

**Q.** And the “concentration” value (human P450 51A1 [2]; time 3 s)?
**A.** 5.8863 µM

**Q.** What about the “concentration” value (human P450 51A1 [2]; time 4 s) of the same molecule?
**A.** 6.6353 µM

**Q.** What about the “concentration” value (human P450 51A1 [2]; time 7 s) of the same molecule?
**A.** 7 µM

**Q.** What about the koff (human P450 51A1 [3]) of the same molecule?
**A.** 2 s⁻¹

**Q.** And the Kd (human P450 51A1 [4]; 1.0 μM P450 51A1, quadratic fit, read-out: Kd)?
**A.** 1400 nM

**Q.** For `CC(C)CCCC(C)[C@H]1CC[C@@]2(C)C3=C(CC[C@]12C)[C@@]1(C)CC[C@@H](O)C(C)(C)C1CC3` (stereo partly drawn) [epi-dihydrolanosterol, epi-Dihydrolanosterol], which kcat (human P450 51A1 [5]) is on record?
**A.** 0.42 ± 0.03 s⁻¹

**Q.** What about the Kd (human P450 51A1 [4]) of the same molecule?
**A.** 14 nM

**Q.** With `CC(=O)N1CCN(c2ccc(OCC3COC(Cn4ccnc4)(c4ccc(Cl)cc4Cl)O3)cc2)CC1` (centres unmarked) [ketoconazole] as the molecule, how does the “pseudo-first-order observed rate of binding” value (human P450 51A1 [6]) read?
**A.** 25 s⁻¹

B1: human P450 51A1 (Homo sapiens) (protein)
chain: T1 sequence (Q16850 1-509)
**Q.** How did the Km [7] turn out when B1 was run?
**A.** 5.4 ± 0.7 µM

**Q.** And the kcat [7]?
**A.** 1.7 ± 0.1 s⁻¹

**Q.** And the Km [8]?
**A.** 2.0 ± 0.4 µM

**Q.** What about the kcat/Km ([9]; other: conversion to dihydro FF-MAS, isotope effect comparison) of the same molecule?
**A.** 1.3 (±0.2) × 10^5 M^−1 s^−1

**Q.** What about the Km ([9]; other: oxidation to dihydro FF-MAS (epi-dihydro FF-MAS from epi substrate), 37 °C) of the same molecule?
**A.** 5.0 ± 0.6 µM

**Q.** What about the Km [10] of the same molecule?
**A.** 4.3 ± 0.4 µM

**Q.** And the kcat [10]?
**A.** 0.67 ± 0.03 s⁻¹
